Like-named read-outs stand apart in the source and are kept apart here.
Assays:
[1] = system: Amygdala kindled rats (generalized and focal seizures); assay: Seizure suppression in amygdala kindled rats; assay type: in vivo, rat; settings: IP; for suppression of focal seizures: suppressed = absence of EEG seizure activity lasting more than 4 seconds, FIGS. 1B, 2B; for suppression of generalized seizures: suppressed = absence of stage 3 or higher seizure (Racine scale), FIGS. 1A, 2A
Description: Preclinical studies were performed to study the effects of CBD or THC alone, or CBD in combination with THC, on seizures. Amygdala kindled rats were used as a model for generalized and focal seizures in these studies.
Kindling Procedure: An insulated bipolar electrode was implanted in the right basolateral amygdala of male Sprague Dawley rats (50-55 days old). Two weeks following implantation, the rats began daily kindling. The stimulation used for kindling was a 1 second train of biphasic 60 Hz square wave pulses at an intensity of 400 micro-amps, once per day. Both the focal afterdischarge (AD) and convulsive behavior were monitored for a minimum of 30 seconds after stimulation or until an observed seizure ended. Rats were stimulated once daily until ten stage 5 Racine scale seizures have been generated, after which they are considered fully kindled (typically 3-4 weeks).
Seizure Scoring: The focal seizures were defined by observing the afterdischarge (AD) recorded by electroencephalogram (EEG) via the implanted electrode. The focal AD can last as long as 1-2 minutes post stimulation. The focal AD is not necessarily accompanied by a secondary generalized motor seizure, especially early in the kindling process. Early behavioural signs may include the cessation of behaviour or blinking. After sufficient kindling has been induced, generalized motor events of seizure generalization began to occur. These events were rated using the Racine scale. The stages are as follows: Stage 1—facial clonus; Stage 2—head nodding; Stage 3—forelimb clonus; Stage 4—forelimb clonus and rearing on hindlimbs; Stage 5—loss of postural control (rearing and following over).
Seizure Threshold Testing: Two days after the 10th stage 5 seizure was recorded, the animal's seizure threshold was tested using ascending series technique. The process was started at an intensity of 20 micro-amps, which was increased by 20 micro-amps every two minutes until an AD was produced. The seizure threshold is defined as the current needed to produce the AD.
Stability Testing: After seizure thresholds were determined, the animals underwent stability testing to confirm the reliability of the threshold. The animals were stimulated at 25% above the determined threshold 3 times per week for 2 weeks. If seizures were consistently evoked at this level of stimulation, the rat was considered stable. […]
The effects of: a) CBD alone (0, 20, 40, 80, 160, 320 mg/kg; 10 subjects per dose); b) THC alone (0, 5, 10, 20, 40, 80 mg/kg; 10 subjects per dose); or c) CBD+THC (15:1) (CBD dose of 0, 20, 40, 80, 160, 320 mg/kg; 10 subjects per dose), were tested. […] A generalized seizure was considered to be suppressed if there was an absence of stage 3 or higher seizure, assessed using the Racine scale. […]

[2] = Toxicity assessment of kindled rats before stimulation (Loscher ataxia scale); assay type: in vivo, rat; settings: IP
Description: Before each round of drug testing stimulation, the rats were assessed for motor toxicity using the Loscher ataxia scale. This scale is used to determine motor impairment. The scale rankings are as follows: Stage 1—slight ataxia in hind legs, no decrease in abdominal muscle tone; Stage 2—more pronounced ataxia, slight decrease in abdominal muscle tone, flat body position; Stage 3—increased ataxia, continued decrease in abdominal muscle tone, more pronounced flat body posture, splayed hind legs, and crawling during forward motion; Stage 4—marked ataxia, loss of balance during forward motion, loss of abdominal muscle tone, flat body posture, splayed hind legs, and dragging during forward motion; Stage 5—very marked ataxia, frequent loss of balance during forward motion, loss of abdominal muscle tone.

[3] = Pharmacokinetics of orally administered CBD; assay type: in vivo, human; settings: oral; 4 to 5 times the half-life
Excerpt: The half-life of CBD, administered orally, may be about […]. A steady state is may be reached about 10 days after regular dosing begins (i.e., 4 to 5 times the half-life). As such, with a 4 week treatment period all patients may achieve a steady state of CBD blood concentration.

[4] = system: convulsive seizures; settings: participants with Dravet Syndrome and drug-resistant seizures; cited from earlier work
[5] = system: seizures; settings: cited from earlier work; for median reduction (seizures): at 12 weeks
[6] = system: seizures; settings: of the 7 participants who received CBD; temporal-lobe epilepsy; cited from earlier work
[7] = system: seizures; settings: after 3 months of treatment; TSC and treatment-resistant epilepsy; cited from earlier work
[8] = cited from earlier work
[9] = system: mice; settings: intraperitoneally or orally; cited from earlier work
[10] = in vivo; cited from earlier work

| SMILES | suppression of focal seizures [1] | suppression of generalized seizures [1] | doses with no observed toxic effects [2] | time to steady state after regular dosing begins [3] | frequency of occurrence of convulsive seizures [4] | patients who became seizure free [4] | median reduction (seizures) ([5]; patients with DS) [%] | participants free of seizures in the last four weeks of treatment ([5]; patients with DS) [participants] | median reduction (seizures) ([5]; patients with LGS) [%] | participants free of seizures in the last four weeks of treatment ([5]; patients with LGS) [participant] | participants seizure free during treatment [6] | median percent change in total weekly seizure frequency [7] [%] | safety and tolerability in clinical trials ([8]; human, in vivo) | doses for which no significant adverse effects have been reported ([8]; p.o.) | dose-response of therapeutic benefits (anti-inflammatory and anti-nociceptive) [9] | doses at which psychotoxicity was observed [2] | dose at which there may be psychotropic effects [10] [mg] |
| --- | --- | --- | --- | --- | --- | --- | --- | --- | --- | --- | --- | --- | --- | --- | --- | --- | --- |
| C=C(C)[C@@H]1CCC(C)=C[C@H]1c1c(O)cc(CCCCC)cc1O [CBD, cannabidiol] | suppress some generalized and focal seizures | suppress some generalized and focal seizures | up to 320 mg/kg | about 10 days | significantly reduced | about 5% | 49.8 | 4 | 36.8 | 1 | 4 | −48.8 | safe and well tolerated across a wide dosage range | up to 1500 mg/day | bell-shaped dose-response | – | – |
| CCCCCc1cc(O)c2c(c1)OC(C)(C)[C@@H]1CCC(C)=C[C@@H]21 [THC, Δ^9-tetrahydrocannabinol] | suppress some generalized and focal seizures | suppress some generalized and focal seizures | – | – | – | – | – | – | – | – | – | – | – | – | – | above 10 mg/kg | 10 |

Source: patent US20210121435A1, “METHODS FOR TREATING SEIZURES IN EPILEPSY WITH A COMPOSITION COMPRISING CANNABINOIDS” (MEDRELEAF CORP., priority 2019, published 2021)
